Measured values published in ChEMBL document CHEMBL3301361, “Experimental in vitro DMPK and physicochemical data on a set of publicly disclosed compounds”.

Test: physchem
Settings: octan-1-ol/water, pH 7.4, LogD7.4

logD	Compound
4.21	O=C(NCC12CC3CC(CC(C3)C1)C2)c1ccccc1
4.12	C/N=C(\S)n1nc(-c2ccc(Cl)cc2)nc1N
3.84	Fc1cc(F)cc(-c2cc(N(CCCN3CCCCCC3)Cc3ccc4c(c3)OCO4)on2)c1
4.1	N#Cc1ccc(-c2csc(Nc3ccc(O)cc3)n2)cc1
3.9	CCN(C(=O)NCc1ccc(F)cc1)C1CCN(CCC(c2ccccc2)c2ccccc2)CC1
3.9	COc1cccc(Nc2nc(NCC3CCCO3)c3ccccc3n2)c1 (stereo unspecified)
4.29	O=S(=O)(NCC(c1ccccc1)N1CCCCCC1)c1ccc(C(F)(F)F)cc1 (stereo unspecified)
-1.06	N[C@@H](Cc1ccc(F)cc1)C(=O)O
3.71	N#CCc1c[nH]c2ccc(OCc3ccccc3)cc12
4.23	Fc1ccc(C2CCN(C(=S)COCc3ccncc3)CC2)c(Cl)c1
3.93	O=C(CCCc1ccncc1)N1CCN(c2ccc(Cl)cc2Cl)CC1
4.13	CC(C)(C)NC(=O)C(c1ccncc1)N(Cc1ccco1)C(=O)c1ccc(-c2ccccc2)[nH]1 (stereo unspecified)
4.38	O=S(=O)(Nc1ccc2[nH]c(-c3ccc(Br)o3)nc2c1)c1ccccc1
3.79	Cc1ccc(C(=O)N2CCC(C(=O)c3ccc(Cl)cc3)CC2)cc1
3.83	O=C(CC12CC3CC(CC(C3)C1)C2)Nc1cccc2ncccc12
4.4	O=C(Oc1ccccc1O)c1cccc2ccccc12
3.75	Cn1c(CN2CCN(c3cccc(Cl)c3)CC2)nc2ccccc21
4.16	Nc1nc(-c2ccccc2)nc2c1nc(O)n2Cc1ccccc1
4.48	CC(c1ccccc1)C(Cc1nc2ccccc2[nH]1)c1nc2ccccc2[nH]1 (stereo unspecified)
4	Clc1ccc(-c2cn3ccccc3n2)cc1
3.8	COc1ccc(/C=C2/CCc3ccccc3C2=O)cc1CN1CCOCC1
4.05	COc1ccc(Cl)cc1C(=O)Nc1nc2ccccc2[nH]1
3.8	CN1CCOc2nc(C#Cc3ccccc3)ccc21
3.7	CCN1CCOc2cc(COc3ccccc3)cnc21
3.72	CC[C@H](NC(=O)c1c([S+](C)[O-])c(-c2ccc(F)cc2)nc2ccccc12)c1ccccc1 (stereo partly specified)
3.81	CC[C@H](NC(=O)c1c([S+]([O-])C(C)C)c(-c2ccccc2)nc2ccccc12)c1ccccc1 (stereo partly specified)
-1.4	CC1CC(CN)CC(CO)C1 (stereo unspecified)

logD	Compound
4.15	Cc1cc(NC(=O)Nc2ccc(Cl)cc2)n(-c2ccccc2)n1
4.2	Cc1ccc(CO)cc1N(C)c1ccnc(Nc2cc(N3CCCCC3)cc(N3CCOCC3)c2)n1
3.9	Cc1ccc(CO)cc1N(C)c1ccnc(Nc2cc(N3CCOCC3)nc(N3CCOCC3)n2)n1
-1.08	N#Cc1ccc(OCC(=O)O)c(-c2ccccc2)c1
3.76	COc1cc(F)ccc1-c1cncc(CNC(=O)c2ccccc2)c1
3.8	CCCNC(=O)c1nnc2c(-c3ccccc3)cccc2c1N
3.77	COc1ccc(OC)c(-c2c(F)ccc3c(N)c(C(=O)NC(C)C)nnc23)c1
4	CCN(C(=O)NCc1ccccc1)C1CCN(CCC(c2ccccc2)c2ccccc2)CC1
3.7	COc1cc(N2CCN(C(C)=O)CC2)ccc1Nc1ncc(Br)c(-c2cnc3ccccn23)n1
4.2	COc1cc(N2CCN(C(C)=O)CC2)ccc1Nc1ncc(Cl)c(-c2cnc3cc(Cl)ccn23)n1
4.1	COc1cc(N2CCN(C(C)=O)CC2)ccc1Nc1ncc(Cl)c(-c2cnc3ccc(N(C)C)cn23)n1
4.4	CC(=O)Nc1cccc(Nc2ncnc(N3CCC(OCc4ccc(OC(F)(F)F)cc4)CC3)n2)c1C
3.9	CCN(C(=O)Cc1ccc(C#N)cc1)C1CCN(CCC(c2ccccc2)c2ccccc2)CC1
4	COC(=O)c1ccc(CC(=O)N(C)C2CCN(CCC(c3ccccc3)c3ccccc3)CC2)cc1
4.14	CCC(NC(=O)c1ccc(C)cc1)c1nc2ccsc2c(=O)n1Cc1ccccc1 (stereo unspecified)
4.26	COc1cc2ncnc(Nc3cc(NC(=O)c4cccc(N(C)C)c4)ccc3Cl)c2cc1OC
-1.31	O=C(O)CSc1c[nH]c2ccccc12
3.82	N#Cc1cccc(C(=O)Nc2cc(-c3ccccc3)nn2-c2ccccc2)c1
4	Oc1ccc(-c2ccc3cc(O)ccc3c2)cc1
-1.01	COc1ccc(-c2ccccc2)cc1N1CC(=O)NS1(=O)=O
-1	CN(C)CCCNC(=O)c1nc(Cl)c(N)nc1N
3.86	Oc1ccc(C(c2ccc(O)cc2)C(Cl)(Cl)Cl)cc1
4.1	O=c1cc(N2CCOCC2)oc2c(-c3cccc4c5c(sc34)CCCC5)cccc12
4.06	O=C(Nc1ccc(C(F)(F)F)c(Cl)c1)N1CCN(C[C@@H]2CCCN(C3CC3)C2)CC1
4.05	CC(C)Cn1c(=O)n(C)c(=O)c2c(SCCCO)c(Cc3ccccc3C(F)(F)F)sc21
3.92	COc1ccc(-c2cccc3c(N)c4c(nc23)CN(C2CCC2)C4=O)c(C)n1
4.3	COc1ncc(-c2cccc3c2C[C@H](NC(=O)c2ccc(OCC(F)(F)F)nc2)CO3)cn1

logD	Compound
3.95	C[C@@H]1CN(c2noc(C(F)(F)F)n2)CCN1c1ncc(OCc2ccncc2C#N)cn1
4.26	Cc1oc(C#N)cc1-c1c2c(=O)n(C)c(=O)n(CC3CC3)c2nn1Cc1ccnc2ccc(Cl)cc12
3.8	Cn1ncnc1-c1c2c(=O)n(C)c(=O)n(CC3CC3)c2nn1Cc1ccnc2ccc(Cl)cc12
4.33	Cn1cncc1-c1c2c(=O)n(CC3CC3)c(=O)n(CC3CC3)c2nn1Cc1ccnc2ccc(Cl)cc12
3.96	C#CCn1c(=O)c2c(-c3cc(C#N)cn3C)n(Cc3ccnc4ccc(Cl)cc34)nc2n(CC2CC2)c1=O
4.13	CCn1c(=O)c2c(-c3cc(C#N)cn3C)n(Cc3ccnc4ccc(Cl)cc34)nc2n(CC2CC2)c1=O
4.27	C=CCn1c(=O)c2c(-c3cc(C#N)cn3C)n(Cc3ccnc4ccc(Cl)cc34)nc2n(CC2CC2)c1=O
3.92	C=CCn1c(=O)c2c(-c3nc(C#N)cn3C)n(Cc3ccnc4ccc(Cl)cc34)nc2n(CC2CC2)c1=O
4.1	CC(C)Cn1c(=O)n(C)c(=O)c2c(-c3cncn3C)n(Cc3cccc4ccccc34)nc21
4.4	CC#Cc1ccnc(-c2cccc([C@@]3(c4cc(C)c(=O)n(CC)c4)N=C(N)c4c(F)cccc43)c2)c1
-1.03	Cc1cn([C@H]2CCCN(Cc3ccc(C(=O)O)c(Oc4cccc(F)c4)c3)C2)c(=O)[nH]c1=O
-1.48	Oc1nc(S)nc2nc[nH]c12
4.04	COc1cc2ncnc(N3CC[C@@H](Oc4cnc5ccccc5n4)C3)c2cc1OC
4.13	O=C(NCCCNc1nc(Nc2cccc(NC(=O)N3CCCC3)c2)ncc1Br)c1cccs1
3.93	O=C(NC[C@@H](O)CN1CCC(Oc2ccc(Cl)c(Cl)c2)CC1)c1c[nH]c(=O)c2ccc(F)cc12
4	O=C(NCc1ccco1)c1ccc2[nH]c(COc3ccc(C45CC6CC(CC(C6)C4)C5)cc3)nc2c1
3.85	COc1cc(C(=O)Nc2ccc(N3CCOCC3)cc2)nc2c(N3CCN(C)CC3)cc(F)cc12
4.21	CC(C)c1ccccc1Nc1nnc(SCc2cccs2)[nH]1
4.1	NC1(C(=O)NC(c2ccccc2)c2ccc(Cl)cc2)CCN(c2ncnc3[nH]ccc23)CC1 (stereo unspecified)
3.75	C[C@@H]1CN(c2nc(N3CCOC[C@@H]3C)c3ccc(-c4ccccc4)nc3n2)C[C@H](C)O1
4.5	CC(C)C[C@H](CO)Nc1nc(SCc2ccccc2F)nc2nc(N)sc12
3.8	CCC[C@H](CO)Nc1nc(SCc2ccccc2)nc2nc(N)sc12
4.3	CC(C)(C)c1ccc(-c2n[nH]c(NC(=O)c3ccccc3Cl)c2Br)cc1
4.1	O=C1c2ccccc2CN1C1CCN(CCC(c2ccccc2)c2ccccc2)CC1
4.1	Clc1cccc(Cl)c1/C(=C/n1cncn1)OC1CCCCCC1
3.9	Clc1cccc(Nc2ncnc3ccccc23)c1
3.88	O=C1CCC(=O)N1C(CCc1ccncc1)COc1ccc(-c2cccc([N+](=O)[O-])c2)cc1 (stereo unspecified)

logD	Compound
3.97	CNC(=O)c1cccc(NC(=O)Nc2cccc(C#N)c2)c1CN1CCC(Cc2ccc(F)cc2)CC1
4.43	COc1ccccc1C(=O)NCC12CC3CC(CC(C3)C1)C2
4.39	COc1ccc(Cl)c(C(=O)NCC23CC4CC(CC(C4)C2)C3)c1
3.85	O=C(C(=O)c1cc(Br)ccc1O)c1cc(Br)ccc1O
3.8	CC(C)Cn1c(=O)n(C)c(=O)c2c(C(=O)N3CCCC3)c(Cc3ccccc3C(F)(F)F)sc21
3.8	Cn1c(N)nc(CCc2cccc(-c3ccccc3)c2)cc1=O
4.15	O=C(NCC12CC3CC(CC(C3)C1)C2)c1ccccc1Br
4.2	FC(F)(F)c1cc(COCC(c2cccc(Cl)c2)N2CCNCC2)cc(C(F)(F)F)c1 (stereo unspecified)
4.13	Cc1ccc(NC(=O)CCC2CCCCC2)cc1NC(=O)c1ccc(O)cc1
4.37	O=C(NCC12CC3CC(CC(C3)C1)C2)c1cccc(Cl)c1Cl
4.18	CC[C@H](NC(=O)c1c(CN(C)C)c(-c2ccccc2)nc2ccccc12)c1ccccc1
4.48	Cc1oc(S(C)(=O)=O)cc1-c1c2c(=O)n(C)c(=O)n(CC3CC3)c2nn1Cc1cn(C)c2ccc(Cl)cc12
3.99	Oc1ccc2nc(-c3ccccc3)sc2c1
3.87	Cc1ccc(NC(=O)c2cccc(C(F)(F)F)c2)cc1NC(=O)c1ccc2ncccc2c1
4.11	Brc1cnc(NCc2ccccc2)nc1Nc1cc(C2CC2)n[nH]1
3.9	O=c1[nH]ccc2nc(-c3ccc(CN4CCC(c5n[nH]c(-c6ccccn6)n5)CC4)cc3)c(-c3ccccc3)cc12
4.05	CC[C@H](NC(=O)c1c(N)c(-c2cccc(F)c2)nc2ccccc12)c1ccccc1
4.28	Fc1ccc(CNc2ncc(Br)c(Nc3cc(C4CC4)[nH]n3)n2)cc1
4.29	COc1cccc(NC(=O)c2cccc(Cc3c(C)nn(CCO)c3-c3ccccc3)c2)c1
3.83	COc1cc(C(=O)Nc2ccc(Cl)c(-c3nc4ccccc4[nH]3)c2)cc(OC)c1OC
3.8	Oc1ccc2[nH]c(CN3CCC(Cc4ccc(F)cc4)CC3)nc2c1
3.8	Nc1ccc2[nH]c(Cc3ccc(Oc4ccccc4)cc3)nc2c1
3.97	Cn1nc(C(C)(C)C)cc1NC(=O)Nc1ccc(Cl)cc1
3.93	CC(C)(C)C(=O)NCc1ccc(NC(=O)N2CCCC(O)(c3ccc(Cl)c(Cl)c3)C2)cc1 (stereo unspecified)

Compound	logD
CC(C)N(C(=O)C(c1cccnc1)C(CNC(=O)NCc1ccccc1F)c1ccccc1)C(C)C (stereo unspecified)	4.2
